Assay results reported in patent publication US7897330B2, “Methods for characterizing enzyme inhibitors” (AB Sciex, LLC, priority 2005, dated 2011).
Like-named read-outs stand apart in the source and are kept apart here.

How the values were obtained:
[1] = biological target: P. falciparum LDH (Plasmodium falciparum, UniProt Q27743); assay: fluorescence-coupled LDH enzyme assay on microfluidics system, continuously variable concentration gradient, fit to Equation 4; type: biochemical
Excerpt: A fluorescence-coupled enzyme assay was developed using a microfluidics system described herein for creating a continuously variable concentration gradient to monitor the reduction of NAD^+ by the enzyme LDH to give a fluorescent end product. This system was then adapted to measure potency and determine mechanism of inhibition by various inhibitors of LDH.
One of the products of the reaction in the assay, NADH, is coupled to Thermus thermophilus NADH oxidase to generate H2O2, which in turn is coupled to horseradish peroxidase which reacts with […] and amplex red (Molecular Probes, Inc., Eugene, Oreg., U.S.A.) to give the fluorescent product resorufin. […]
The novel data analysis techniques described herein for determining the mechanism of inhibition of an inhibitor (or mechanism of activation of an activator) are applied to the data produced from the microfluidics system. The titration of the enzyme with a continuous linear variation of inhibitor and substrate from zero to a pre-determined finite concentration yields a characteristic rate profile that is defined by the specific type of interaction of the inhibitor and enzyme with respect to the substrate. […]
The titration of LDH with a linear gradient of NAD^+ was performed on the microfluidics system described herein with the change in relative fluorescence intensity monitored under initial rate conditions. […]

[2] = tested on: LDH; details: cited from earlier work
[3] = biological target: T1, rabbit muscle lactate dehydrogenase (LDH) (Oryctolagus cuniculus, UniProt P13491); assay: continuous variation method on microtiter plate, step concentration gradients; type: biochemical
T1 construct: the enzyme rabbit muscle lactate dehydrogenase (LDH); from tissue; host or cells: rabbit muscle
Excerpt: Determination of the mechanism of inhibition by the inhibitor oxalate with respect to the substrate NAD^+ against the enzyme rabbit muscle lactate dehydrogenase (LDH) using a microtiter plate to generate individual step concentration gradients was attempted. FIG. 47 is a graph showing the results of the experiment. An attempt to determine the mechanism of inhibition by the inhibitor oxalate with respect to the substrate lactate against the enzyme rabbit muscle LDH using a microtiter plate to generate individual step concentration gradients was attempted. FIG. 48 is a graph showing the results of this experiment.

P. falciparum LDH, sequence (Q27743 whole entry): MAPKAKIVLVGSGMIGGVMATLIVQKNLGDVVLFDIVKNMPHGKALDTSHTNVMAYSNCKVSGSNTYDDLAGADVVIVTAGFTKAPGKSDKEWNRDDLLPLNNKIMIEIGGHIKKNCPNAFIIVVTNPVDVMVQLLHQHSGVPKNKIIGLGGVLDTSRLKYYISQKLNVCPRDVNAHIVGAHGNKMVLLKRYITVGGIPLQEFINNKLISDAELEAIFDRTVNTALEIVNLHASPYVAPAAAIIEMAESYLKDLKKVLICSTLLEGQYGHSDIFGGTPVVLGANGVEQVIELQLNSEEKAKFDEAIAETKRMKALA

SMILES: NC(=O)c1ccc[n+]([C@@H]2O[C@H](COP(=O)([O-])OP(=O)(O)OC[C@H]3O[C@@H](n4cnc5c(N)ncnc54)[C@H](O)[C@@H]3O)[C@@H](O)[C@H]2O)c1 [NAD^+]
- Km ([1]; titration of LDH with linear gradient of NAD+, initial rate conditions, read-out: Km (Michaelis constant)): 54 ± 2 µM

SMILES: O=C(O)C(=O)O [oxalate]
- mechanism of inhibition ([2]; with respect to NAD+): uncompetitive
- mechanism of inhibition ([2]; with respect to lactate): competitive inhibitor
- mechanism of inhibition ([3]; with respect to NAD+, ambiguous): uncompetitive inhibitor
- mechanism of inhibition ([3]; with respect to lactate, not certain): competitive inhibitor
- mechanism of inhibition ([1]; with respect to substrate NAD+, continuous gradient): uncompetitive inhibition
